Experimental findings from PubChem BioAssay AID1259407 (Chemical Carcinogenesis Research Information System (CCRIS), 2018) are described below.

The test system of this data set is CCRIS mutagenicity, Ames/micronucleus/aberration tests. Kind of data set: CCRIS mutagenicity studies.
Where [1] appears, read: Test System: AMES SALMONELLA TYPHIMURIUM, Strain/Indicator: TA98, Metabolic Activation: NONE, Method: PREINCUBATION
The mark [2] stands for this setting: Test System: AMES SALMONELLA TYPHIMURIUM, Strain/Indicator: TA100, Metabolic Activation: NONE, Method: PREINCUBATION
The mark [3] stands for this setting: Test System: AMES SALMONELLA TYPHIMURIUM, Strain/Indicator: TA98, Metabolic Activation: NONE, Method: STANDARD PLATE.
The mark [4] stands for this setting: Test System: AMES SALMONELLA TYPHIMURIUM, Strain/Indicator: TA100, Metabolic Activation: NONE, Method: STANDARD PLATE.

Calls of active or inactive are those of the source. How the calls were made is not given here.

Take `CC[C@H]1OC(=O)[C@H](C)[C@@H](O[C@H]2C[C@@](C)(OC)[C@@H](O)[C@H](C)O2)[C@H](C)[C@@H](O[C@@H]2O[C@H](C)C[C@H](N(C)C)[C@H]2O)[C@](C)(O)C[C@@H](C)C(=O)[C@H](C)[C@@H](O)[C@]1(C)O`: the mutagenic call is “inactive; negative” (End Point: AMES SALMONELLA TYPHIMURIUM, Test System: TA98, Metabolic Activation: NONE, Method: STANDARD PLATE); “inactive; negative” (End Point: AMES SALMONELLA TYPHIMURIUM, Test System: TA100, Metabolic Activation: NONE, Method: STANDARD PLATE); “inactive; negative; testing limited by solubility of the chemical” (End Point: IN VITRO CHROMOSOMAL ABERRATIONS, Test System: CHO CELLS, Metabolic Activation: NONE); “inactive; negative; testing limited by solubility of the chemical” (End Point: IN VITRO CHROMOSOMAL ABERRATIONS, Test System: CHO CELLS, Metabolic Activation: RAT, LIVER, S-9, AROCLOR 1254); “inactive; negative” (Test System: AMES SALMONELLA TYPHIMURIUM, Strain/Indicator: TA98, Metabolic Activation: HAMSTER, LIVER, S-9, AROCLOR 1254, Method: PREINCUBATION); “inactive; negative” under setting [1]. Also, the mutagenic call is, setting by setting: (Test System: AMES SALMONELLA TYPHIMURIUM, Strain/Indicator: TA98, Metabolic Activation: RAT, LIVER, S-9, AROCLOR 1254, Method: PREINCUBATION) “inactive; negative”; (Test System: AMES SALMONELLA TYPHIMURIUM, Strain/Indicator: TA100, Metabolic Activation: HAMSTER, LIVER, S-9, AROCLOR 1254, Method: PREINCUBATION) “inactive; negative”; under setting [2], “inactive; negative”; (Test System: AMES SALMONELLA TYPHIMURIUM, Strain/Indicator: TA100, Metabolic Activation: RAT, LIVER, S-9, AROCLOR 1254, Method: PREINCUBATION) “inactive; negative”; (Test System: AMES SALMONELLA TYPHIMURIUM, Strain/Indicator: TA1535, Metabolic Activation: HAMSTER, LIVER, S-9, AROCLOR 1254, Method: PREINCUBATION) “inactive; negative”; (Test System: AMES SALMONELLA TYPHIMURIUM, Strain/Indicator: TA1535, Metabolic Activation: NONE, Method: PREINCUBATION) “inactive; negative”. Besides, the mutagenic call runs as follows: (Test System: AMES SALMONELLA TYPHIMURIUM, Strain/Indicator: TA1535, Metabolic Activation: RAT, LIVER, S-9, AROCLOR 1254, Method: PREINCUBATION) “inactive; negative”; (Test System: AMES SALMONELLA TYPHIMURIUM, Strain/Indicator: TA1537, Metabolic Activation: HAMSTER, LIVER, S-9, AROCLOR 1254, Method: PREINCUBATION) “inactive; negative”; (Test System: AMES SALMONELLA TYPHIMURIUM, Strain/Indicator: TA1537, Metabolic Activation: NONE, Method: PREINCUBATION) “inactive; negative”; (Test System: AMES SALMONELLA TYPHIMURIUM, Strain/Indicator: TA1537, Metabolic Activation: RAT, LIVER, S-9, AROCLOR 1254, Method: PREINCUBATION) “inactive; negative”; (Test System: MOUSE LYMPHOMA, Strain/Indicator: L5178Y (TK+/TK-), Metabolic Activation: RAT, LIVER, S-9, AROCLOR 1254, Method: SUSPENSION/PLATE) “inactive; negative”.
`COc1ccc2c(c1)-c1nccc3cc(OC)c(OC)c(c13)C2=O`: the mutagenic call (Test System: AMES SALMONELLA TYPHIMURIUM, Strain/Indicator: TA98, Metabolic Activation: RAT, LIVER, S-9, PHENOBARBITAL AND BETA-NAPHTHOFLAVONE, Method: PREINCUBATION) is “active; positive”.
Regarding `COC(=O)c1ccco1`, the mutagenic call is “inactive; negative” under setting [3] and “inactive; negative” under setting [4].
Take `Cc1ccc(N=Nc2c(O)ccc3ccccc23)c(C)c1`: the mutagenic call reads like this: (Test System: AMES SALMONELLA TYPHIMURIUM, Strain/Indicator: TA98, Metabolic Activation: HAMSTER, LIVER, S-9, AROCLOR 1254 (5,20%), Method: PREINCUBATION) “active; positive”; (Test System: AMES SALMONELLA TYPHIMURIUM, Strain/Indicator: TA98, Metabolic Activation: HAMSTER, LIVER, S-9, AROCLOR 1254, Method: STANDARD PLATE) “active; positive”; (Test System: AMES SALMONELLA TYPHIMURIUM, Strain/Indicator: TA98, Metabolic Activation: HAMSTER, LIVER, S-9, Method: PREINCUBATION (PRIVAL METHOD)) “active; positive”; under setting [3], “inactive; negative”; (Test System: AMES SALMONELLA TYPHIMURIUM, Strain/Indicator: TA98, Metabolic Activation: RAT, BLADDER, S-9, PCB, Method: FLUCTUATION TEST) “inactive; negative”; (Test System: AMES SALMONELLA TYPHIMURIUM, Strain/Indicator: TA98, Metabolic Activation: RAT, LIVER, S-9, AROCLOR 1254, HAMSTER, LIVER, S-9, AROCLOR 1254, Method: STANDARD PLATE) “active; positive”. For the same compound, the mutagenic call is, setting by setting: (Test System: AMES SALMONELLA TYPHIMURIUM, Strain/Indicator: TA98, Metabolic Activation: RAT, LIVER, S-9, Method: STANDARD PLATE) “inactive; negative”; (Test System: AMES SALMONELLA TYPHIMURIUM, Strain/Indicator: TA100, Metabolic Activation: HAMSTER, LIVER, S-9, Method: PREINCUBATION (PRIVAL METHOD)) “active; positive”; under setting [4], “inactive; negative”; (Test System: AMES SALMONELLA TYPHIMURIUM, Strain/Indicator: TA100, Metabolic Activation: RAT, BLADDER, S-9, PCB, Method: FLUCTUATION TEST) “inactive; negative”; (Test System: AMES SALMONELLA TYPHIMURIUM, Strain/Indicator: TA100, Metabolic Activation: RAT, LIVER, S-9, Method: STANDARD PLATE) “inactive; negative”; (Test System: AMES SALMONELLA TYPHIMURIUM, Strain/Indicator: TA1538, Metabolic Activation: RAT, LIVER, S-9, AROCLOR 1254, HAMSTER, LIVER, S-9, AROCLOR 1254, Method: STANDARD PLATE) “active; positive”. Moreover, the mutagenic call is “inactive; negative” (Test System: Mouse lymphoma, Strain/Indicator: L5178Y (tk+/tk-), Metabolic Activation: None, Method: Suspension/plate) and “inactive; negative” (Test System: Mouse lymphoma, Strain/Indicator: L5178Y (tk+/tk-), Metabolic Activation: Rat, Liver, S-9, Aroclor 1254, Method: Suspension/plate).
On to `O=[N+]([O-])O[C@H]1CO[C@H]2[C@@H]1OC[C@H]2O[N+](=O)[O-]`, for which the mutagenic call was “inactive; negative” under setting [3]; “inactive; negative” (Test System: AMES SALMONELLA TYPHIMURIUM, Strain/Indicator: TA98, Metabolic Activation: RAT, LIVER, S-9, AROCLOR 1254, Method: STANDARD PLATE); “inactive; negative” under setting [4]; “inactive; negative” (Test System: AMES SALMONELLA TYPHIMURIUM, Strain/Indicator: TA100, Metabolic Activation: RAT, LIVER, S-9, AROCLOR 1254, Method: STANDARD PLATE); “inactive; negative” (Test System: AMES SALMONELLA TYPHIMURIUM, Strain/Indicator: TA1535, Metabolic Activation: NONE, Method: STANDARD PLATE); “inactive; negative” (Test System: AMES SALMONELLA TYPHIMURIUM, Strain/Indicator: TA1535, Metabolic Activation: RAT, LIVER, S-9, AROCLOR 1254, Method: STANDARD PLATE). The mutagenic call is, setting by setting: (Test System: AMES SALMONELLA TYPHIMURIUM, Strain/Indicator: TA1537, Metabolic Activation: NONE, Method: STANDARD PLATE) “inactive; negative”; (Test System: AMES SALMONELLA TYPHIMURIUM, Strain/Indicator: TA1537, Metabolic Activation: RAT, LIVER, S-9, AROCLOR 1254, Method: STANDARD PLATE) “inactive; negative”.
On to `O[C@H]1[C@H]2O[C@H]2c2c(c3ccccc3c3ccccc23)[C@@H]1O`, for which the mutagenic call is “active; positive” (Test System: AMES SALMONELLA TYPHIMURIUM, Strain/Indicator: TA97, Metabolic Activation: NONE, Method: PREINCUBATION); “active; positive” under setting [1]; “active; positive” under setting [2]; “active; positive” (Test System: AMES SALMONELLA TYPHIMURIUM, Strain/Indicator: TA104, Metabolic Activation: NONE, Method: PREINCUBATION); “active; positive” (Test System: CHINESE HAMSTER V-79, Strain/Indicator: V-79/6-THIOGUANINE, Metabolic Activation: NONE).
